Source: PMC11731258, “The structural basis for high-affinity c-di-GMP binding to the GSPII-B domain of the traffic ATPase PilF from Thermus thermophilus” (The Journal of Biological Chemistry, 2024)

Legend:
PilF159-302 Q190E+Q218E = test: ITC binding to PilF159-302 Q190E+Q218E; design: species or system Thermus thermophilus; conditions: 20 °C, double mutant
Description: (§1) To assess the ligand-binding capabilities of the various PilF constructs, triplicates of ITC measurements were recorded for each construct. The measurements were carried out using a MicroCal ITC200 (Malvern Panalytical). All ITC experiments were conducted at 20 °C with 50 mM Tris-HCl pH 7.5, 200 mM sodium chloride, 1 mM β-mercaptoethanol as the sample buffer. All protein samples were extensively dialyzed against the sample buffer and the buffer used for dialysis was used to dilute protein and c-di-GMP samples in preparation for the ITC measurements. Each measurement was conducted using the following protocol. In total, 39.8 μl c-di-GMP were titrated to 270 μl protein in 20 separate injections in 180 s intervals with a stirring speed of 750 rpm. After an initial delay of 120 s, the first injection of 0.2 μl c-di-GMP with a duration of 0.4 s was followed by 19 injections of 2 μl with a duration of 4 s. During the measurement, the feedback mode was set to high and the reference power to 11 μcal s^−1. To optimize precision of the measurements, protein and c-di-GMP concentrations were adjusted to the binding capabilities of the respective constructs and ranged from 5 to 200 μM for protein and 50 to 2000 μM for c-di-GMP. All thermograms were processed using Origin 7.0 (OriginLab) using a one-site– or two-site–binding model dependent on the number of expected binding events.

[1] = biological target: T1, PilF159-302 (GSPII-B domain) (Thermus thermophilus, UniProt Q5SLC9); test: ITC binding to PilF159-302; conditions: for N / ΔH / ΔS / Kd: ITC
T1 sequence (Q5SLC9 159-302): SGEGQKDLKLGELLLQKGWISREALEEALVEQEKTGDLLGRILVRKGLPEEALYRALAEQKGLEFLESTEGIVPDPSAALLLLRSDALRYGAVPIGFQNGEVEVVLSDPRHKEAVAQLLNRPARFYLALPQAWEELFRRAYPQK
Description: as §1, with “All ITC experiments were conducted at 20 °C with 50 mM Tris-HCl pH 7.5, 200 mM sodium chloride, 1 mM β-mercaptoethanol as the sample buffer.” left out

PilF159-302 Q190E = biological target: T2, PilF159-302 Q190E (Thermus thermophilus, UniProt Q5SLC9, Q190E); test: ITC binding to PilF159-302 Q190E; conditions: 20 °C
T2 sequence (Q5SLC9 159-302 Q190E): T1 sequence (Q5SLC9 159-302)
Description: as §1

Compound: Nc1nc2c(ncn2[C@@H]2O[C@@H]3COP(=O)(O)O[C@H]4[C@@H](O)[C@H](n5cnc6c(=O)[nH]c(N)nc65)O[C@@H]4COP(=O)(O)O[C@H]3[C@H]2O)c(=O)[nH]1 [c-di-GMP, cyclic dimeric guanosine monophosphate]
- c-di-GMP binding (PilF159-302 Q190E+Q218E): abrogated c-di-GMP binding
- fold higher affinity than MshEN ([1]; GSPII-B (KD 6 nM) vs MshEN (KD 500 nM)): 83 fold
- N ([1]; 20 °C): 0.66 ± 0.02
- ΔH ([1]; 20 °C): -10.795 ± 1.145 kcal/mol
- ΔS ([1]; 20 °C): -0.8 ± 4.0 cal/mol/deg
- N ([1]; 45 °C): 0.88 ± 0.11
- ΔH ([1]; 45 °C): -13.327 ± 1.389 kcal/mol
- ΔS ([1]; 45 °C): -6.6 ± 4.2 cal/mol/deg
- Kd ([1]; 20 °C, pH 7.5): 6 nM
- Kd ([1]; 45 °C): 20 nM
- increase in the free enthalpy of binding compared to MshEN ([1]; at 20 °C): ~2.7 kcal/mol
- N (PilF159-302 Q190E): 1.11 ± 0.03
- ΔH (PilF159-302 Q190E): -3.389 ± 0.156 kcal/mol
- ΔS (PilF159-302 Q190E): 15.4 ± 0.4 cal/mol/deg
- Kd (PilF159-302 Q190E; pH 7.5): 950 ± 7 nM
